ChEMBL document CHEMBL5338712, “Influence of chain length on the anticancer activity of the antimicrobial peptide CAMEL with fatty acid modification” (Eur J Med Chem, 2022)
Converted amounts (≈) assume the structure as drawn. The source made the active and inactive calls. The rule behind the calls is not given here. Where a SMILES comes first, the peptide text is derived from it. The star is where a group is joined. Palmitoyl = CCCCCCCCCCCCCCCC(=O)*; Lauroyl = CCCCCCCCCCCC(=O)*; Decanoyl = CCCCCCCCCC(=O)*; Octanoyl = CCCCCCCC(=O)*; Cbz = O=C(OCc1ccccc1)*; Butyryl = CCCC(=O)*; CH2F = FC*

Assays:
B16-F10 [1] = experiment: Cytotoxicity against mouse B16-F10 cells assessed as induction of cell death measured for 4 to 24 hrs by MTT assay; assay type: functional, cell-based; details: time 4-24 hrs
[2] = Self-assembly behavior of compound in saline solution assessed as critical micelle concentration by spectrophotometer analysis; assay type: physicochemical; details: buffer
B16-F10 [3] = experiment: Induction of ROS production in mouse B16-F10 cells at 10 uM measured for 0.5 to 4 hrs by MitoSOX red dye based microplate reader analysis; assay type: functional, cell-based; details: time 0.5-4 hrs
B16-F10 [4] = experiment: Membrano-lytic activity in mouse B16-F10 cell membrane measured after 1 hr by LDH leakage assay; assay type: cell-based; details: dose 1.25-20 µM
[5] = Toxicity in C57BL/6 […] mouse implanted with mouse B16-F10 cells assessed as animal death administered intratumorally; assay type: cell-based; details: in vivo, other, route it(Intratumoral)
trypsin = trypsin (Homo sapiens, UniProt P07477+P07478+P35030); experiment: Stability of compound assessed as trypsin (unknown origin)-mediated compound degradation measured upto 6 hrs by RP-HPLC analysis; assay type: ADME, protein assay; details: trypsin (enzyme solution), read-out: Drug degradation
B16-F10 [6] = experiment: Cytotoxicity against mouse B16-F10 cells assessed as reduction in cell viability measured after 1 hrs by MTT assay; assay type: functional, cell-based; details: dose 1.25-20 µM
B16-F10 [7] = experiment: Induction of cell cycle arrest in mouse B16-F10 cells assessed as accumulation at G0/G1 phase at 10 uM and measured after 24 hrs PI staining based by flow cytometry; assay type: functional
B16-F10 [8] = experiment: Antitumor activity against mouse B16-F10 cells implanted in intratumorally dosed C57BL/6 mouse assessed as reduction in tumor volume administered for 3 days by vernier caliper method; assay type: functional, organism-based; details: time 3.0 day
B16-F10 [9] = experiment: Induction of apoptosis in mouse B16-F10 cells assessed as activation of caspase-3 incubated for 24 hrs by microplate reader analysis; assay type: functional, cell-based
B16-F10 [10] = experiment: Antiproliferative activity against mouse B16-F10 cells assessed as inhibition of cell viability by measuring ATP level at 10 uM measured for 4 to 24 hrs; assay type: functional, cell-based; details: time 4-24 hrs
B16-F10 [11] = experiment: Induction of cell membrane disruption in mouse B16-F10 cells at 20 uM measured for 30 mins by PI staining based microplate reader assay
Staphylococcus aureus = experiment: Antibacterial activity against Staphylococcus aureus ATCC […] assessed as reduction in bacterial growth measured for 18 hrs by serial dilution method; assay type: functional
B16-F10 [12] = experiment: Induction of mitochondrial membrane potential loss in mouse B16-F10 cells at 10 uM by flow cytometry analysis; assay type: functional, cell-based; details: time 0.5-4 hrs, TDE = time-dependent effect
B16-F10 [13] = experiment: Induction of morphological changes in mouse B16-F10 cells assessed as cell swelling at 20 uM incubated for 30 mins by microscopic analysis; assay type: functional, cell-based
B16-F10 [14] = experiment: Induction of morphological changes in mouse B16-F10 cells assessed as cell rounding at 20 uM incubated for 30 mins by microscopic analysis; assay type: functional, cell-based
B16-F10 [15] = experiment: Cytotoxicity against mouse B16-F10 cells assessed as reduction in cell viability at 1.25 to 20 uM measured after 72 hrs by MTT assay; assay type: functional, cell-based; details: dose 1.25-20 µM
B16-F10 [16] = experiment: Cytotoxicity against mouse B16-F10 cells assessed as reduction in cell viability at 1.25 to 20 uM by MTT assay; assay type: functional, cell-based; details: dose 1.25-20 µM, time 1-72 hrs, TDE = time-dependent effect
B16-F10 [17] = experiment: Induction of apoptosis in mouse B16-F10 cells assessed as decrease in ATP level; assay type: functional, cell-based
B16-F10 [18] = experiment: Membrano-lytic activity in mouse B16-F10 cell membrane at 20 uM by LDH leakage assay; assay type: cell-based; details: time 0.5-4 hrs, TDE = time-dependent effect
B16-F10 [19] = experiment: Membrano-lytic activity in mouse B16-F10 cell membrane at 1.25 to 20 uM measured after 1 hr by LDH leakage assay; assay type: cell-based; details: dose 1.25-20 µM
B16-F10 [20] = experiment: Induction of necrotic cell death in mouse B16-F10 at 10 uM measured after 1 to 24 hrs; assay type: functional, cell-based; details: time 1-24 hrs
B16-F10 [21] = experiment: Induction of necroptosis in mouse B16-F10 cells assessed as increase in ROS level; assay type: functional, cell-based
B16-F10 [22] = experiment: Induction of morphological changes in mouse B16-F10 cells assessed as cell bursting at 20 uM incubated for 30 mins by microscopic analysis; assay type: functional, cell-based
B16-F10 [23] = experiment: Induction of ROS production in mouse B16-F10 cells at 10 uM measured for 0.5 to 4 hrs by DCFH-DA dye based microplate reader analysis; assay type: functional, cell-based; details: time 0.5-4 hrs
Escherichia coli = experiment: Antibacterial activity against Escherichia coli ATCC 25922 assessed as reduction in bacterial growth measured for 18 hrs by serial dilution method; assay type: functional
B16-F10 [24] = experiment: Disruption of membrane integrity in mouse B16-F10 cells at 10 uM measured at 4 to 24 hrs by propidium iodide staining based laser scanning microscopic analysis; assay type: cell-based; details: time 4-24 hrs
B16-F10 [25] = experiment: Induction of mitochondrial membrane potential loss in mouse B16-F10 cells assessed as decrease in fluorescence intensity at 10 uM measured at 0.5 to 4 hrs by flow cytometry analysis; assay type: functional, cell-based; details: time 0.5-4 hrs
B16-F10 [26] = experiment: Induction of necroptosis in mouse B16-F10 cells assessed as cell death at 5 to 20 uM measured for 4 to 24 hrs in presence of Nec-1; assay type: functional, cell-based; details: dose 5-20 µM, time 4-24 hrs
B16-F10 [27] = experiment: Cytotoxicity against mouse B16-F10 cells assessed as reduction in cell viability at 1.25 to 20 uM measured after 24 hrs by MTT assay; assay type: functional, cell-based; details: dose 1.25-20 µM
B16-F10 [28] = experiment: Membrano-lytic activity in mouse B16-F10 cell membrane at 1.25 to 20 uM measured after 4 hr by LDH leakage assay; assay type: cell-based; details: dose 1.25-20 µM
B16-F10 [29] = experiment: Induction of cell membrane disruption in mouse B16-F10 cells at 20 uM by PI staining based microplate reader assay; details: time 30.0 min, TDE = time-dependent effect
B16-F10 [30] = experiment: Membrano-lytic activity in mouse B16-F10 cell membrane at 20 uM measured at 1 hr by LDH leakage assay; assay type: cell-based

COC(=O)C[C@H](NC(=O)[C@H](C)NC(=O)[C@@H](NC(=O)OCc1ccccc1)C(C)C)C(=O)CF (Cbz-Val-Ala-Asp(OMe)-CH2F)
Activity (B16-F10 [1]): Active

CCCCCCCCCC(=O)N[C@@H](CCCCN)C(=O)N[C@@H](Cc1c[nH]c2ccccc12)C(=O)N[C@@H](CCCCN)C(=O)N[C@@H](CC(C)C)C(=O)N[C@@H](Cc1ccccc1)C(=O)N[C@@H](CCCCN)C(=O)N[C@@H](CCCCN)C(=O)N[C@H](C(=O)NCC(=O)N[C@@H](C)C(=O)N[C@H](C(=O)N[C@@H](CC(C)C)C(=O)N[C@@H](CCCCN)C(=O)N[C@H](C(=O)N[C@@H](CC(C)C)C(N)=O)C(C)C)C(C)C)[C@@H](C)CC (Decanoyl-KWKLFKKIGAVLKVL-NH2)
CMC [2]: 32.61 µM

CCCCCCCCCCCCCCCC(=O)N[C@@H](CCCCN)C(=O)N[C@@H](Cc1c[nH]c2ccccc12)C(=O)N[C@@H](CCCCN)C(=O)N[C@@H](CC(C)C)C(=O)N[C@@H](Cc1ccccc1)C(=O)N[C@@H](CCCCN)C(=O)N[C@@H](CCCCN)C(=O)N[C@H](C(=O)NCC(=O)N[C@@H](C)C(=O)N[C@H](C(=O)N[C@@H](CC(C)C)C(=O)N[C@@H](CCCCN)C(=O)N[C@H](C(=O)N[C@@H](CC(C)C)C(N)=O)C(C)C)C(C)C)[C@@H](C)CC (Palmitoyl-KWKLFKKIGAVLKVL-NH2)
Activity (B16-F10 [3]): Active | Activity (B16-F10 [4]): Dose-Dependent Effect | Activity [5]: Non-Toxic | metabolised at 6 h (trypsin): 8.7% | Activity (B16-F10 [6]): Dose-Dependent Effect | Activity (B16-F10 [7]): inactive | Activity (B16-F10 [8]): Active | Activity (B16-F10 [9]): inactive | Activity (B16-F10 [10]): Active | CMC [2]: 4.95 µM | Activity (B16-F10 [11]): Active | MIC (Staphylococcus aureus): > 128 µM | Activity (B16-F10 [12]): Tde | Activity (B16-F10 [13]): Active | Activity (B16-F10 [14]): Active | Activity (B16-F10 [15]): Active | Activity (B16-F10 [16]): Tde | Activity (B16-F10 [17]): inactive | Activity (B16-F10 [18]): Tde | Activity (B16-F10 [19]): Active | Activity (B16-F10 [20]): Active | Activity (B16-F10 [21]): Active | Activity (B16-F10 [22]): Active | Activity (B16-F10 [23]): Active | MIC (Escherichia coli): > 128 µM | Activity (B16-F10 [24]): Active | Activity (B16-F10 [1]): inactive | Activity (B16-F10 [25]): Active | Activity (B16-F10 [26]): Active | Activity (B16-F10 [27]): Active

CCCCCCCC(=O)N[C@@H](CCCCN)C(=O)N[C@@H](Cc1c[nH]c2ccccc12)C(=O)N[C@@H](CCCCN)C(=O)N[C@@H](CC(C)C)C(=O)N[C@@H](Cc1ccccc1)C(=O)N[C@@H](CCCCN)C(=O)N[C@@H](CCCCN)C(=O)N[C@H](C(=O)NCC(=O)N[C@@H](C)C(=O)N[C@H](C(=O)N[C@@H](CC(C)C)C(=O)N[C@@H](CCCCN)C(=O)N[C@H](C(=O)N[C@@H](CC(C)C)C(N)=O)C(C)C)C(C)C)[C@@H](C)CC (Octanoyl-KWKLFKKIGAVLKVL-NH2)
Activity (B16-F10 [4]): Dose-Dependent Effect | metabolised at 6 h (trypsin): 70.2% | Activity (B16-F10 [6]): Dose-Dependent Effect | MIC (Staphylococcus aureus): 4 µM (≈ 7.59 µg/mL) | Activity (B16-F10 [19]): Active | MIC (Escherichia coli): 8 µM (≈ 15.2 µg/mL) | Activity (B16-F10 [27]): Active

CCCC(=O)N[C@@H](CCCCN)C(=O)N[C@@H](Cc1c[nH]c2ccccc12)C(=O)N[C@@H](CCCCN)C(=O)N[C@@H](CC(C)C)C(=O)N[C@@H](Cc1ccccc1)C(=O)N[C@@H](CCCCN)C(=O)N[C@@H](CCCCN)C(=O)N[C@H](C(=O)NCC(=O)N[C@@H](C)C(=O)N[C@H](C(=O)N[C@@H](CC(C)C)C(=O)N[C@@H](CCCCN)C(=O)N[C@H](C(=O)N[C@@H](CC(C)C)C(N)=O)C(C)C)C(C)C)[C@@H](C)CC (Butyryl-KWKLFKKIGAVLKVL-NH2)
Activity (B16-F10 [4]): Dose-Dependent Effect | metabolised at 6 h (trypsin): 100% | Activity (B16-F10 [6]): Dose-Dependent Effect | MIC (Staphylococcus aureus): 2 µM (≈ 3.68 µg/mL) | Activity (B16-F10 [19]): Active | MIC (Escherichia coli): 4 µM (≈ 7.36 µg/mL) | Activity (B16-F10 [27]): Active

CCCCCCCCCCCC(=O)N[C@@H](CCCCN)C(=O)N[C@@H](Cc1c[nH]c2ccccc12)C(=O)N[C@@H](CCCCN)C(=O)N[C@@H](CC(C)C)C(=O)N[C@@H](Cc1ccccc1)C(=O)N[C@@H](CCCCN)C(=O)N[C@@H](CCCCN)C(=O)N[C@H](C(=O)NCC(=O)N[C@@H](C)C(=O)N[C@H](C(=O)N[C@@H](CC(C)C)C(=O)N[C@@H](CCCCN)C(=O)N[C@H](C(=O)N[C@@H](CC(C)C)C(N)=O)C(C)C)C(C)C)[C@@H](C)CC (Lauroyl-KWKLFKKIGAVLKVL-NH2)
Activity (B16-F10 [3]): Active | Activity (B16-F10 [4]): Dose-Dependent Effect | Activity [5]: Non-Toxic | metabolised at 6 h (trypsin): 18.9% | Activity (B16-F10 [6]): Dose-Dependent Effect | Activity (B16-F10 [7]): inactive | Activity (B16-F10 [8]): Active | Activity (B16-F10 [9]): inactive | Activity (B16-F10 [10]): Active | CMC [2]: 7.16 µM | Activity (B16-F10 [11]): Active | Activity (B16-F10 [28]): Active | MIC (Staphylococcus aureus): 8 µM (≈ 15.6 µg/mL) | Activity (B16-F10 [12]): Tde | Activity (B16-F10 [29]): Tde | Activity (B16-F10 [13]): Active | Activity (B16-F10 [14]): Active | Activity (B16-F10 [17]): inactive | Activity (B16-F10 [20]): Active | Activity (B16-F10 [21]): Active | Activity (B16-F10 [22]): Active | Activity (B16-F10 [23]): Active | MIC (Escherichia coli): 8 µM (≈ 15.6 µg/mL) | Activity (B16-F10 [1]): inactive | Activity (B16-F10 [25]): Active | Activity (B16-F10 [26]): Active | Activity (B16-F10 [27]): Active | Activity (B16-F10 [30]): Active
